In US20070128217A1 (priority 2003, published 2007):

Assays:
[1] = system: rabbit serum obtained by immunizing a rabbit with the SARS-CoV strain Frankfurt 1; format: binding; set-up: Binding of a rabbit serum to linear peptides / Binding of a rabbit serum to looped peptides / Rabbit serum linear peptides / Rabbit serum looped peptides / Binding of a rabbit serum to linear peptides of protein N of SARS-CoV Urbani (Rabbit serum linear peptides) / Binding of a rabbit serum to looped/cyclic peptides of protein N of SARS-CoV Urbani (Rabbit serum looped peptides): unit not given here
[2] = system: antibodies in sera from SARS patients (sera 1a, 1b, 2, 6, 37, 62, London, SARS-yellow, SARS-green); format: binding, human; set-up: Binding of serum 6 to linear peptides of protein X1 of SARS-CoV Urbani / Binding of serum 37 to linear peptides of protein X1 of SARS-CoV Urbani / Binding of serum 6 to looped/cyclic peptide (PEPSCAN-ELISA) / Binding of serum 37 to looped/cyclic peptide (PEPSCAN-ELISA) / Binding of serum 37 to looped/cyclic peptides of protein X1 of SARS-CoV Urbani / Binding of serum 6 to linear peptides of protein X2 / Binding of serum 37 to linear peptides of protein X2 / Binding of serum 37 to looped/cyclic peptides of protein X2 of SARS-CoV Urbani / Binding of serum 6 to linear peptides of protein M of SARS-CoV Urbani / Binding of serum 37 to linear peptides of protein M of SARS-CoV Urbani / Binding of serum 6 to looped/cyclic peptides of protein M of SARS-CoV Urbani / Binding of serum 37 to looped/cyclic peptides of protein M of SARS-CoV Urbani / Binding of serum 6 to linear peptides of protein X3 of SARS-CoV Urbani / Binding of serum 37 to linear peptides of protein X3 of SARS-CoV Urbani / Binding of serum 37 to looped/cyclic peptides of protein X3 of SARS-CoV Urbani / Binding of serum 6 to linear peptides of protein X4 of SARS-CoV Urbani / Binding of serum 37 to linear peptides of protein X4 of SARS-CoV Urbani / Binding of serum 37 to looped/cyclic peptides of protein X4 of SARS-CoV Urbani / Binding of serum 6 to linear peptides of protein X5 of SARS-CoV Urbani / Binding of serum 37 to linear peptides of protein X5 of SARS-CoV Urbani / Binding of serum 37 to looped/cyclic peptides of protein X5 of SARS-CoV Urbani / Binding of serum 6 to linear peptides of protein N of SARS-CoV Urbani / Binding of serum 37 to linear peptides of protein N of SARS-CoV Urbani / Binding of serum 6 to linear peptide (PEPSCAN-ELISA) / Binding of serum 1a to looped/cyclic peptides of protein N of SARS-CoV Urbani / Binding of serum 1b to looped/cyclic peptides of protein N of SARS-CoV Urbani / Binding of serum 2 to looped/cyclic peptides of protein N of SARS-CoV Urbani / Binding of serum 6 to looped/cyclic peptides of protein N of SARS-CoV Urbani / Binding of serum 37 to looped/cyclic peptides of protein N of SARS-CoV Urbani / Binding of serum 62 to looped/cyclic peptides of protein N of SARS-CoV Urbani / Binding of serum London to looped/cyclic peptides of protein N of SARS-CoV Urbani / Binding of serum SARS-green to looped/cyclic peptides of protein N of SARS-CoV Urbani: unit not given here
[3] = system: control sera (pooled serum of ten healthy LUMC hospital workers; commercial negative donor pooled serum from the Dutch bloodbank); format: binding, human; set-up: Binding of Control serum LUMC to linear peptides / Binding of Control serum Blood-bank to linear peptides / Binding of Control serum LUMC to looped peptides / Binding of Control Serum Blood-Bank to Looped peptides / Binding of Control serum LUMC to linear peptides of the protein M of SARS-CoV Urbani / Binding of Control serum Blood-bank to linear peptides of the protein M of SARS-CoV Urbani / Binding of Control serum LUMC to looped peptides of the protein M of SARS-CoV Urbani / Binding of Control Serum Blood-Bank to Looped peptides of the protein M of SARS-CoV Urbani: unit not given here

| Sequence | Binding of a rabbit serum to linear peptides [1] | Binding of a rabbit serum to looped peptides [1] | Binding of Control Serum Blood-Bank to Looped peptides [3] | Binding of Control serum Blood-bank to linear peptides [3] | Binding of Control serum LUMC to linear peptides [3] | Binding of Control serum LUMC to looped peptides [3] | Binding of serum 1a to looped/cyclic peptides of protein X2 of SARS-CoV Urbani [2] | Binding of serum 1b to looped/cyclic peptides of protein X2 of SARS-CoV Urbani [2] | Binding of serum 2 to looped/cyclic peptides of protein X2 of SARS-CoV Urbani [2] | Binding of serum 6 to looped/cyclic peptides of protein X2 of SARS-CoV Urbani [2] | Binding of serum 37 to looped/cyclic peptides of protein X2 of SARS-CoV Urbani [2] | Binding of serum 62 to looped/cyclic peptides of protein X2 of SARS-CoV Urbani [2] | Binding of serum London to looped/cyclic peptides of protein X2 of SARS-CoV Urbani [2] | Binding of serum SARS-green to looped/cyclic peptides of protein X2 of SARS-CoV Urbani [2] | Binding of serum SARS-yellow to looped/cyclic peptides of protein X2 of SARS-CoV Urbani [2] | other results |
| --- | --- | --- | --- | --- | --- | --- | --- | --- | --- | --- | --- | --- | --- | --- | --- | --- |
| QIHTIDGSSGVANPA | 0.1 | 0.3 | 0.2 | 0.6 | 0.6 | 0.4 | – | – | – | – | – | – | – | – | – | Binding of serum 1a to linear peptides of protein X1 of SARS-CoV Urbani [2]: 0.6; Binding of serum 1a to looped/cyclic peptides of protein X1 of SARS-CoV Urbani [2]: 0.4; Binding of serum 1b to linear peptides of protein X1 of SARS-CoV Urbani [2]: 0.5; Binding of serum 1b to looped/cyclic peptides of protein X1 of SARS-CoV Urbani [2]: 0.3; Binding of serum 2 to linear peptides of protein X1 of SARS-CoV Urbani [2]: 0.6; Binding of serum 2 to looped/cyclic peptides of protein X1 of SARS-CoV Urbani [2]: 0.4; Binding of serum 6 to linear peptides of protein X1 of SARS-CoV Urbani [2]: 0.5; Binding of serum 6 to looped/cyclic peptides of protein X1 of SARS-CoV Urbani [2]: 0.2; Binding of serum 37 to linear peptides of protein X1 of SARS-CoV Urbani [2]: 0.7; Binding of serum 37 to looped/cyclic peptides of protein X1 of SARS-CoV Urbani [2]: 0.4; Binding of serum 62 to linear peptides of protein X1 of SARS-CoV Urbani [2]: 0.6; Binding of serum 62 to looped/cyclic peptides of protein X1 of SARS-CoV Urbani [2]: 0.3; Binding of serum London to linear peptides of protein X1 of SARS-CoV Urbani [2]: 0.3; Binding of serum London to looped/cyclic peptides of protein X1 of SARS-CoV Urbani [2]: 0.2; Binding of serum SARS-green to linear peptides of protein X1 of SARS-CoV Urbani [2]: 0.4; Binding of serum SARS-green to looped/cyclic peptides of protein X1 of SARS-CoV Urbani [2]: 0.2; Binding of serum SARS-yellow to linear peptides of protein X1 of SARS-CoV Urbani [2]: 0.3; Binding of serum SARS-yellow to looped/cyclic peptides of protein X1 of SARS-CoV Urbani [2]: 0.1 |
| YHITVSQIQLSLLKV | 0.8 | 0.3 | 0.3 | 0.6 | 0.7 | 0.4 | 0.4 | 0.4 | 0.4 | 0.1 | 0.4 | 0.5 | 0.2 | 0.3 | 0.4 | Binding of serum 1a to linear peptides of protein X2 [2]: 0.6; Binding of serum 1b to linear peptides of protein X2 [2]: 0.5; Binding of serum 2 to linear peptides of protein X2 [2]: 0.5; Binding of serum 6 to linear peptides of protein X2 [2]: 0.5; Binding of serum 37 to linear peptides of protein X2 [2]: 0.7; Binding of serum 62 to linear peptides of protein X2 [2]: 0.5; Binding of serum London to linear peptides of protein X2 [2]: 0.4; Binding of serum SARS-green to linear peptides of protein X2 [2]: 0.1; Binding of serum SARS-yellow to linear peptides of protein X2 [2]: 0.6 |
| HKKVSTNLCTHSFRK | 0.4 | 0.1 | 0.5 | 0.8 | 0.9 | 0.8 | 0.6 | 0.4 | 0.8 | 0.6 | 0.5 | 0.7 | 0.3 | 0.3 | 0.6 | Recognition of the peptide by sera of SARS-CoV infected individuals, and form (linear, looped/cyclic) in which it is recognized [2]: recognized in linear form |
